Experimental data: the CheMixHub drug solubility set

Assay: xn = mol fraction of the nth substance listed, in the solute-free solvent

Nc1cc(-c2ccncc2)c[nH]c1=O + OCCO + O
solubility (g/100 g solution)
Settings	278.15 K	283.15 K	288.15 K	293.15 K	298.15 K	303.15 K	308.15 K	313.15 K	318.15 K	323.15 K
x2 = 0.03125	0.000969	0.00114	0.00136	0.0016	0.00188	0.00216	0.00248	0.00283	0.00323	0.00367
x2 = 0.06767	0.00136	0.0016	0.00191	0.00224	0.00262	0.00301	0.00345	0.00393	0.00447	0.00508
x2 = 0.1107	0.00187	0.00221	0.00263	0.0031	0.00358	0.00411	0.00469	0.00542	0.00618	0.00703
x2 = 0.1622	0.00264	0.00312	0.00368	0.00432	0.00505	0.00577	0.00658	0.00746	0.00845	0.00955
x2 = 0.225	0.0034	0.00407	0.00476	0.00562	0.00649	0.00751	0.00852	0.00976	0.0111	0.0126
x2 = 0.3034	0.00444	0.00524	0.00616	0.00725	0.00846	0.00962	0.0109	0.0124	0.014	0.0158
x2 = 0.4038	0.00528	0.00637	0.00751	0.00882	0.0103	0.0117	0.0131	0.0148	0.0168	0.0189
x2 = 0.5373	0.00588	0.00697	0.00817	0.00966	0.0113	0.0128	0.0146	0.0165	0.0186	0.021
x2 = 0.7232	0.00648	0.00764	0.00919	0.0108	0.0123	0.014	0.016	0.0178	0.0199	0.0224

Cc1ccc(-c2cc(C(F)(F)F)nn2-c2ccc(S(N)(=O)=O)cc2)cc1 + CN1CCCC1=O + CCCO
solubility (g/100 g solution)
Settings	x2 = 0.06311	x2 = 0.1316	x2 = 0.2062	x2 = 0.2878	x2 = 0.3774	x2 = 0.4763	x2 = 0.5858	x2 = 0.708	x2 = 0.8451
293.15 K	5.07	5.58	6.56	6.91	7.25	9.83	11.2	13.6	16.9
298.15 K	5.96	6.26	6.96	7.72	8.23	10.3	12.2	14.6	18
303.15 K	6.68	7.1	7.85	8.74	9.16	11.9	13.4	16.3	19.6
308.15 K	7.49	8.17	9.06	9.84	10	12.7	14.5	17.3	21.1
313.15 K	8.6	9.28	9.59	10.3	10.6	13.5	15.8	19	22.6

CC(C)C(=O)Nc1ccc([N+](=O)[O-])c(C(F)(F)F)c1 + CCOC(C)=O + CC(C)O
solubility (g/100 g solution)
Settings	278.15 K	283.15 K	288.15 K	293.15 K	298.15 K	303.15 K	308.15 K	313.15 K	318.15 K	323.15 K
x2 = 0.1	19.4	22.7	26.3	30.2	33.9	38.7	43.5	48.3	53	57.4
x2 = 0.2	28.6	30.8	33.4	36.8	40.7	44.4	48.2	51.8	55.6	59.2
x2 = 0.3	30.6	34.2	38	41.5	44.9	48.2	51.3	54.9	58.2	61.5
x2 = 0.4	32.7	36.3	39.5	42.8	45.9	49	52.5	55.8	58.7	61.9
x2 = 0.5	33.7	37.2	40.7	44	46.9	49.8	52.9	56.1	59.3	62.1
x2 = 0.6	34.3	38	41.5	44.7	47.6	50.4	53.3	56.4	59.4	62.5
x2 = 0.7	34.5	37.8	41	44.3	47.4	50.3	53.4	56.4	59.4	62.4
x2 = 0.8	34.2	37.7	41.3	44.7	47.8	50.9	53.6	56.7	59.8	62.9
x2 = 0.9	34.4	37.9	41.5	44.8	47.8	51.1	53.9	56.6	59.5	62.6
